Key:
[1] = target: human Gal-1 (hGal-1); test: Competitive binding assay: biotinylated hGal-1 binding to microplate-adsorbed asialofetuin (ASF); conditions: Activity on hGal-1; binding of biotinylated hGal-1 to ASF-coated plates; mean values
Procedure: (§1) Evaluation of Compound Inhibitory Activity (IC50)
The inhibitory activity of compounds is determined in competitive binding assays. This spectrophotometric assay measures the binding of biotinylated human Gal-3 (hGal-3) or human Gal-1 (hGAl-1), respectively, to a microplate-adsorbed glycoprotein, asialofetuin (ASF) (Proc Natl Acad Sci USA. 2013 Mar. 26; 110(13):5052-7.). Alternatively, and preferably, a human Gal-1 version in which all six cysteines are substituted by serines may be used.
Briefly, compounds are serially diluted in DMSO (working dilutions). ASF-coated 384 well pates are supplemented with 22.8 μL/well of biotinylated hGal-3 or hGal-1 in assay buffer (i.e. 300-1000 ng/mL biotinylated hGal-3 or hGal-1) to which 1.2 μL of compound working dilutions are added and mixed.
(§2) Plates are incubated for 3 hours at 4° C. then washed with cold assay buffer (3×50 uL), incubated for 1 hour with 25 μL/well of a streptavidin-peroxidases solution (diluted in assay buffer to 80 ng/mL) at 4° C., followed by further washing steps with assay buffer (3×50 uL). Finally, 25 μL/well of ABTS substrate is added. OD (410 nm) is recorded after 30 to 45 min and IC50 values are calculated.
(§3) The calculated IC50 values may fluctuate depending on the daily assay performance. Fluctuations of this kind are known to those skilled in the art. IC50 values from several measurements are given as mean values.

[2] = target: human Gal-3 (hGal-3) (Homo sapiens (Human), UniProt P17931); test: Competitive binding assay: biotinylated hGal-3 binding to microplate-adsorbed asialofetuin (ASF); conditions: Activity on hGal-3; binding of biotinylated hGal-3 to ASF-coated plates; mean values
human Gal-3 (hGal-3), sequence (P17931 whole entry): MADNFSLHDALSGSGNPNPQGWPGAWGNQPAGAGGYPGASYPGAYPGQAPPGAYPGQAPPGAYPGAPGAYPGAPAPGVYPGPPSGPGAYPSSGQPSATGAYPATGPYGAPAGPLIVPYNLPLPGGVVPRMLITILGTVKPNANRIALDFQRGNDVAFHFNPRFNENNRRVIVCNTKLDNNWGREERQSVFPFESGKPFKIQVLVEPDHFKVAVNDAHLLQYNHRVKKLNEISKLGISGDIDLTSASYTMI
Procedure: as §1
The inhibitory activity of compounds is determined in competitive binding assays. […] Alternatively, and preferably, a human Gal-1 version in which all six cysteines are substituted by serines may be used.
Briefly, compounds are serially diluted in DMSO (working dilutions).
as §2, with “added.” for “added. OD (410 nm) is recorded after 30 to 45 min and IC50 values are calculated.”
as §3

human Gal-1 (hGal-1), sequence (P09382 2-135 limits assumed): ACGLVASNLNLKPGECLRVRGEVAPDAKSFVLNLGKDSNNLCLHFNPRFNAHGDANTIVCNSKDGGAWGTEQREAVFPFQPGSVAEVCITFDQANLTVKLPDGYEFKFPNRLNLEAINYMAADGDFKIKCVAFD

| IC50 [1] [nM] | IC50 [2] [nM] | Structure (SMILES) |
| --- | --- | --- |
| 6500 | 154 | O=C([C@@H]1O[C@H](CO)[C@H](O)[C@H](n2cc(-c3cc(F)c(F)c(F)c3)nn2)[C@H]1O)N(Cc1ccccc1)[C@H]1CCCC[C@@H]1O [Example 1, (2R,3R,4S,5R,6R)-N-benzyl-3,5-dihydroxy-N-((1S,2S)-2-hydroxycyclohexyl)-6-(hydroxymethyl)-4-(4-(3,4,5-trifluorophenyl)-1H-1,2,3-triazol-1-yl)tetrahydro-2H-pyran-2-carboxamide] |
| 22800 | 301 | O=C([C@@H]1O[C@H](CO)[C@H](O)[C@H](n2cc(-c3cc(F)c(F)c(F)c3)nn2)[C@H]1O)N(Cc1cccc(Cl)c1)[C@H]1CCCC[C@@H]1O [Example 2, (2R,3R,4S,5R,6R)-N-(3-chlorobenzyl)-3,5-dihydroxy-N-((1S,2S)-2-hydroxycyclohexyl)-6-(hydroxymethyl)-4-(4-(3,4,5-trifluorophenyl)-1H-1,2,3-triazol-1-yl)tetrahydro-2H-pyran-2-carboxamide] |
| > 100000 | 471 | C#Cc1cccc(CN(C(=O)[C@@H]2O[C@H](CO)[C@H](O)[C@H](n3cc(-c4cc(F)c(F)c(F)c4)nn3)[C@H]2O)[C@H]2CCCC[C@@H]2O)c1 [Example 3, (2R,3R,4S,5R,6R)-N-(3-ethynylbenzyl)-3,5-dihydroxy-N-((1S,2S)-2-hydroxycyclohexyl)-6-(hydroxymethyl)-4-(4-(3,4,5-trifluorophenyl)-1H-1,2,3-triazol-1-yl)tetrahydro-2H-pyran-2-carboxamide] |
| > 100000 | 677 | O=C([C@@H]1O[C@H](CO)[C@H](O)[C@H](n2cc(-c3cc(F)c(F)c(F)c3)nn2)[C@H]1O)N(CCc1ccccc1)[C@H]1CCCC[C@@H]1O [Example 4, (2R,3R,4S,5R,6R)-3,5-dihydroxy-N-((1S,2S)-2-hydroxycyclohexyl)-6-(hydroxymethyl)-N-phenethyl-4-(4-(3,4,5-trifluorophenyl)-1H-1,2,3-triazol-1-yl)tetrahydro-2H-pyran-2-carboxamide] |
| 18200 | 174 | O=C([C@@H]1O[C@H](CO)[C@H](O)[C@H](n2cc(-c3cc(F)c(F)c(F)c3)nn2)[C@H]1O)N(Cc1ccc(Cl)cc1)[C@H]1CCCC[C@@H]1O [Example 5, (2R,3R,4S,5R,6R)-N-(4-chlorobenzyl)-3,5-dihydroxy-N-((1S,2S)-2-hydroxycyclohexyl)-6-(hydroxymethyl)-4-(4-(3,4,5-trifluorophenyl)-1H-1,2,3-triazol-1-yl)tetrahydro-2H-pyran-2-carboxamide] |
| 1920 | 71 | O=C([C@@H]1O[C@H](CO)[C@H](O)[C@H](n2cc(-c3cc(F)c(F)c(F)c3)nn2)[C@H]1O)N(Cc1ccccc1Cl)[C@H]1CCCC[C@@H]1O [Example 6, (2R,3R,4S,5R,6R)-N-(2-chlorobenzyl)-3,5-dihydroxy-N-((1S,2S)-2-hydroxycyclohexyl)-6-(hydroxymethyl)-4-(4-(3,4,5-trifluorophenyl)-1H-1,2,3-triazol-1-yl)tetrahydro-2H-pyran-2-carboxamide] |
| 1240 | 57 | O=C([C@@H]1O[C@H](CO)[C@H](O)[C@H](n2cc(-c3cc(F)c(F)c(F)c3)nn2)[C@H]1O)N(Cc1ccccc1C(F)(F)F)[C@H]1CCCC[C@@H]1O [Example 7, (2R,3R,4S,5R,6R)-3,5-dihydroxy-N-((1S,2S)-2-hydroxycyclohexyl)-6-(hydroxymethyl)-N-(2-(trifluoromethyl)benzyl)-4-(4-(3,4,5-trifluorophenyl)-1H-1,2,3-triazol-1-yl)tetrahydro-2H-pyran-2-carboxamide] |
| 2490 | 169 | O=C([C@@H]1O[C@H](CO)[C@H](O)[C@H](n2cc(-c3cc(F)c(F)c(F)c3)nn2)[C@H]1O)N(Cc1ccncc1Cl)[C@H]1CCCC[C@@H]1O [Example 8, (2R,3R,4S,5R,6R)-N-((3-chloropyridin-4-yl)methyl)-3,5-dihydroxy-N-((1S,2S)-2-hydroxycyclohexyl)-6-(hydroxymethyl)-4-(4-(3,4,5-trifluorophenyl)-1H-1,2,3-triazol-1-yl)tetrahydro-2H-pyran-2-carboxamide] |

Source: US12291519B2, “2-hydroxycycloalkane-1-carbamoyl” (Idorsia Pharmaceuticals Ltd, priority 2019, dated 2025)
